From publication PMC10180076, “Novel Biologically Active N-Substituted Benzimidazole Derived Schiff Bases: Design, Synthesis, and Biological Evaluation” (Molecules, 2023)
Values after ≈ are worked out from the molar mass of the structure shown.

How the values were obtained:
[1] = tested on: human coronavirus HCoV-229E; assay: organism not typed; assay type: cell-based; conditions: HEL 299 cells, 100 CCID50, MTS; read-out: Antiviral Activity (EC50/μM) HCoV 229E HEL 299
[2] = tested on: human coronavirus HCoV-OC43; assay: microbe, parasite or virus in culture; assay type: cell-based; conditions: Betacoronavirus 1, OC43; HEL 299 cells, 100 CCID50, MTS; read-out: Antiviral Activity (EC50/μM) HCoV OC43 HEL 299
[3] = tested on: human coronavirus HCoV-NL63; assay: Antiviral CPE reduction assay, HCoV-NL63 in Huh-7; assay type: cell-based; conditions: Huh-7 cells, 100 CCID50, MTS
[4] = tested on: influenza A/H1N1 (A/Ned/378/05); assay: Antiviral CPE reduction assay, influenza A/H1N1 in MDCK; assay type: cell-based; conditions: Influenza A virus, MDCK cells, 100 CCID50, MTS
[5] = tested on: influenza A/H3N2 (A/HK/7/87); assay: Antiviral CPE reduction assay, influenza A/H3N2 in MDCK; assay type: cell-based; conditions: Influenza A virus, MDCK cells, 100 CCID50, MTS
[6] = tested on: influenza B (B/Ned/537/05); assay: Antiviral CPE reduction assay, influenza B in MDCK; assay type: cell-based; conditions: Influenza B virus; MDCK cells, 100 CCID50, MTS
[7] = tested on: respiratory syncytial virus A (Long); assay: Antiviral CPE reduction assay, RSV A in HEL 299; assay type: cell-based; conditions: human respiratory syncytial virus; HEL 299 cells, 100 CCID50, MTS
[8] = tested on: herpes simplex virus-1 (HSV-1 KOS); assay: Antiviral CPE reduction assay, HSV-1 KOS in HEL 299; assay type: cell-based; conditions: Human alphaherpesvirus 1; HEL 299 cells, 100 CCID50, MTS
[9] = tested on: yellow fever virus (YFV 17D); assay: microbe, parasite or virus in culture; assay type: cell-based; conditions: Huh-7, read-out: Antiviral Activity (EC50/μM) YFV 17D Huh-7
Zika virus (Mr776) = assay: Antiviral CPE reduction assay, Zika virus in Huh-7; assay type: cell-based; conditions: Huh-7 cells, 100 CCID50, MTS
sindbis virus = assay: Antiviral CPE reduction assay, Sindbis virus in Huh-7; assay type: cell-based; conditions: Huh-7 cells, 100 CCID50, MTS
in vitro [10] = conditions: human
in vitro [11] = conditions: human; remark: listed apart in the source
in vitro [12] = conditions: dog
LN-229, glioblastoma = assay: Proliferation assay (MTS, 72 h), LN-229; assay type: cell-based, human; conditions: Homo sapiens, LN-229
From the text: (§1) Human cancer cells used in this manuscript, namely Capan-1, HCT-116, NCI-H460, LN-229, HL-60, K-562, and Z-138, were acquired from the American Type Culture Collection (ATCC, Manassas, VA, USA), while the DND-41 cell line was purchased from the Deutsche Sammlung von Mikroorganismen und Zellkulturen (DSMZ Leibniz-Institut, Braunschweig, Germany). Culture media were purchased from Gibco Life Technologies, Merelbeke, Belgium, and supplemented with 10% fetal bovine serum (HyClone, Cytiva, Marlborough, MA, USA). Vincristine and docetaxel, which were used as the reference inhibitors, were purchased from Selleckchem (Munich, Germany). Stock solutions were prepared in DMSO.
(§2) Adherent cell lines LN-229, HCT-116, and NCI-H460 and Capan-1 cells were seeded at a density between 500 and 1500 cells per well, in 384-well tissue culture plates (Greiner, Kremsmünster, Austria). After overnight incubation, the cells were treated with seven different concentrations of the test compounds, ranging from 100 to 0.006 µM.
(§3) Suspension cell lines HL-60, K-562, Z-138, and DND-41 were seeded at densities ranging from 2500 to 5500 cells per well in 384-well culture plates containing the test compounds at the same concentration points. The cells were incubated for 72 h with the compounds and were then analyzed using the CellTiter 96® AQueous One Solution Cell Proliferation Assay (MTS) reagent (Promega, Madison, WI, USA) according to the manufacturer’s instructions. […] The compounds were tested in two independent experiments.

[13] = tested on: Capan-1, pancreatic adenocarcinoma; assay: Proliferation assay (MTS, 72 h), Capan-1; assay type: cell-based, human; conditions: Homo sapiens, CAPAN-1
From the text: as §1, §2, §3

[14] = tested on: HCT-116, colorectal carcinoma; assay: Proliferation assay (MTS, 72 h), HCT-116; assay type: cell-based, human; conditions: Homo sapiens, HCT-116
From the text: as §1, §2, §3

NCI-H460, lung carcinoma = assay: Proliferation assay (MTS, 72 h), NCI-H460; assay type: cell-based, human; conditions: Homo sapiens, NCI-H460
From the text: as §1, §2, §3

[15] = tested on: DND-41, acute lymphoblastic leukemia; assay: Proliferation assay (MTS, 72 h), DND-41; assay type: cell-based, human; conditions: Homo sapiens, DND41
From the text: as §1, §2, §3

[16] = tested on: HL-60, acute myeloid leukemia; assay: Proliferation assay (MTS, 72 h), HL-60; assay type: cell-based, human; conditions: Homo sapiens, HL-60
From the text: as §1, §2, §3

[17] = tested on: K-562, chronic myeloid leukemia; assay: Proliferation assay (MTS, 72 h), K-562; assay type: cell-based, human; conditions: Homo sapiens, K562
From the text: as §1, §2, §3

[18] = tested on: Z-138, non-Hodgkin lymphoma; assay: Proliferation assay (MTS, 72 h), Z-138; assay type: cell-based, human; conditions: Homo sapiens, Z-138
From the text: as §1, §2, §3

E. faecalis ATCC 29212 = assay: Broth microdilution MIC, E. faecalis; assay type: cell-based; conditions: Enterococcus faecalis, ATCC29212; read-out: MIC against E. faecalis
Method: (§4) Selected bacterial strains were Gram-negative E. coli, K. pneumoniae, A. baumannii and P. aeruginosa and Gram-positive S. aureus, S. pneumoniae, and E. faecalis. The synthesized compounds were prepared as 10 mM DMSO solutions and tested in a final concentration range of 0.2–100 µM [39].
(§5) Broth microdilution testing was performed according to CLSI (Clinical Laboratory Standards Institute) guidelines. The MIC (minimal inhibitory concentration) value was defined as the last tested concentration of the compound at which there was no visible growth of bacteria. Inoculums for each microorganism were prepared using the direct colony suspension method, where broth solutions that achieved turbidity equivalent to 0.5 McFarland standard were additionally diluted 100× with Ca adjusted MH media (Becton Dickinson, Franklin Lakes, NJ, USA). All of the test plates were incubated for 16–24 h at 37 °C.
(§6) Methods for dilution of antimicrobial susceptibility tests for bacteria that grow aerobically followed M07, 11th edition, 2018, and Clinical and Laboratory Standards Institute (CLSI) guidelines. Performance standards for antimicrobial susceptibility testing followed the M100, 28th edition, 2018.

E. coli efflux del = assay: microbe, parasite or virus in culture; assay type: cell-based; conditions: Table 2 prints no unit; μM for compounds; antibiotics tested at 0.125–64 µg/mL
Method: as §4, §5, §6

| SMILES | EC50 [1] [µM] | EC50 [2] [µM] | EC50 [3] [µM] | EC50 [4] [µM] | EC50 [5] [µM] | EC50 [6] [µM] | EC50 [7] [µM] | EC50 [8] [µM] | EC50 [9] [µM] | EC50 (Zika virus (Mr776)) [µM] | EC50 (sindbis virus) [µM] | CC50 (in vitro [10]) [µM] | CC50 (in vitro [11]) [µM] | CC50 (in vitro [12]) [µM] | IC50 (LN-229, glioblastoma) [µM] | IC50 [13] [µM] | IC50 [14] [µM] | IC50 (NCI-H460, lung carcinoma) [µM] | IC50 [15] [µM] | IC50 [16] [µM] | further results |
| --- | --- | --- | --- | --- | --- | --- | --- | --- | --- | --- | --- | --- | --- | --- | --- | --- | --- | --- | --- | --- | --- |
| Cn1c(N)nc2ccccc21 [Compound 18, 2-amino-1-methylbenzimidazole] | > 100 | > 100 | > 100 | > 100 | > 100 | > 100 | > 100 | > 100 | > 100 | 43.1 | > 100 | > 100 | > 100 | > 100 | – | – | – | – | – | – | – |
| Cn1c(N)nc2ccc(C#N)cc21 [Compound 22, 2-amino-6-cyano-1-methylbenzimidazole] | > 100 | > 100 | > 100 | > 100 | > 100 | > 100 | 78.7 | > 100 | > 100 | 46.4 | > 100 | > 100 | > 100 | > 100 | – | – | – | – | – | – | – |
| CC(C)Cn1c(/N=C/c2ccc(N(C)C)cc2)nc2ccc(C#N)cc21 [Compound 29, (E)-2-((4-(Dimethylamino)benzylidene)amino)-1-isobutyl-1H-benzo[d]imidazole-6-carbonitrile] | > 100 | > 100 | 79.8 | 94.1 | > 100 | > 100 | > 100 | > 100 | > 100 | > 100 | > 100 | > 100 | > 100 | > 100 | > 100 | > 100 | > 100 | > 100 | > 100 | 42.8 | IC50 [17]: > 100 µM; IC50 [18]: > 100 µM; melting point: 283 to 285 °C |
| CC(C)Cn1c(/N=C/c2ccc([N+](=O)[O-])cc2)nc2ccc(C#N)cc21 [Compound 32, (E)-1-Isobutyl-2-((4-nitrobenzylidene)amino)-1H-benzo[d]imidazole-6-carbonitrile] | 38.5 | 68.7 | > 100 | > 100 | > 100 | > 100 | > 100 | > 100 | > 100 | > 100 | > 100 | > 100 | 90.1 | > 100 | > 100 | > 100 | > 100 | > 100 | > 100 | > 100 | IC50 [17]: > 100 µM; IC50 [18]: > 100 µM; melting point: 277 to 279 °C |
| CN(C)c1ccc(/C=N/c2nc3ccc(C#N)cc3n2C)cc1 [Compound 34, (E)-2-((4-(Dimethylamino)benzylidene)amino)-1-methyl-1H-benzo[d]imidazole-6-carbonitrile] | > 100 | > 100 | 82.8 | > 100 | > 100 | 83.5 | > 100 | > 100 | > 100 | > 100 | > 100 | > 100 | > 100 | > 100 | > 100 | > 100 | > 100 | > 100 | > 100 | > 100 | IC50 [17]: > 100 µM; IC50 [18]: > 100 µM |
| CCN(CC)c1ccc(/C=N/c2nc3ccc(C#N)cc3n2C)c(O)c1 [Compound 36, (E)-2-((4-(Diethylamino)-2-hydroxybenzylidene)amino)-1-methyl-1H-benzo[d]imidazole-6-carbonitrile] | 88.4 | > 100 | > 100 | > 100 | > 100 | > 100 | > 100 | > 100 | > 100 | > 100 | > 100 | > 100 | > 100 | > 100 | > 100 | > 100 | > 100 | > 100 | 41.4 | > 100 | IC50 [17]: > 100 µM; IC50 [18]: > 100 µM |
| CN(C)c1ccc(/C=N/c2nc3ccccc3n2-c2ccccc2)cc1 [Compound 38, (E)-N,N-Dimethyl-4-(((1-phenyl-1H-benzo[d]imidazol-2-yl)imino)methyl)aniline] | > 100 | 94.8 | > 100 | > 100 | > 100 | > 100 | > 100 | > 100 | > 100 | > 100 | > 100 | > 100 | > 100 | > 100 | > 100 | > 100 | > 100 | > 100 | > 100 | > 100 | MIC (E. faecalis ATCC 29212): 32 µM (≈ 10.9 µg/mL); MIC E. coli efflux del (E. coli efflux del): >64; IC50 [17]: > 100 µM; IC50 [18]: > 100 µM; melting point: 204 to 207 °C |
| CCN(CC)c1ccc(/C=N/c2nc3ccc(C#N)cc3n2-c2ccccc2)c(O)c1 [Compound 41, (E)-2-((4-(Diethylamino)-2-hydroxybenzylidene)amino)-1-phenyl-1H-benzo[d]imidazole-6-carbonitrile] | > 100 | 89.5 | > 100 | > 100 | > 100 | > 100 | > 100 | > 100 | > 100 | > 100 | > 100 | > 100 | > 100 | 71.6 | > 100 | 69.5 | > 100 | > 100 | 76.3 | 49.6 | MIC (E. faecalis ATCC 29212): 32 µM (≈ 13.1 µg/mL); MIC E. coli efflux del (E. coli efflux del): >64; IC50 [17]: > 100 µM; IC50 [18]: 35.2 µM; melting point: 111 to 114 °C |
| C[C@@H](O)[C@H]1C(=O)N2C(C(=O)O)=C(S[C@@H]3CN[C@H](C(=O)N(C)C)C3)[C@H](C)[C@H]12 [Meropenem, meropenem, reference compound] | – | – | – | – | – | – | – | – | – | – | – | – | – | – | – | – | – | – | – | – | MIC E. coli efflux del (E. coli efflux del): 8 |
